Measured values taken from patent publication US20240148740A1, “COMBINATION OF AN AHR INHIBITOR WITH A PDX INHIBITOR OR DOXORUBICINE” (Ikena Oncology, Inc., priority 2020, published 2024).
“Also recorded” adds a separate entry of the source.

Experiments:
[1] = Nonclinical safety studies in monkeys (incl. 28-day GLP); format: in vivo, monkey
[2] = Phase 1 study, safety of single agent dose escalation; format: in vivo; details: 200 mg, 400 mg, 800 mg, and 1200 mg QD, monotherapy, human patients
Text: This is a first-in-human (FIH), open-label, multicenter, dose-escalation and expansion study to evaluate the safety, tolerability, PK, pharmacodynamics, and preliminary antitumor activity of Compound A administered orally (PO). There will be two arms: a single agent Compound A arm and a combination arm of Compound A with nivolumab in patients with advanced solid tumors and urothelial carcinoma. The Safety Review Committee (SRC) comprised of the enrolling study Investigators and the Sponsor will use the mTPI-2 design (Guo, 2017) and assess all safety data available to guide dose escalation and de-escalation decisions and subject enrollment for both arms. To assess evidence of preliminary antitumor activity in patients with urothelial carcinoma, a Simon 2-stage design (Simon, 1989) is used for both arms.
A baseline Screening period is followed by a by a Single-dose Run-in period (up to 7 days) to assess the PK of Compound A without food. The Single Agent treatment arm comprises daily oral administration of Compound A in the fed state. […]
Toxicity is evaluated according to National Cancer Institute Common Terminology Criteria for Adverse Events (AEs) (NCI-CTCAE) v5.0. […]

[3] = Phase 1 study, interim cohort pharmacokinetics; format: in vivo, human
Protocol: Serial blood samples are obtained to characterize the plasma PK of Compound A and its major active metabolites. The initial sampling strategy is based on the predicted human PK of this compound. If in the course of evaluating the PK, it is determined that an alternative sampling scheme would be more informative, then that alternative sampling scheme can be implemented if the total amount of blood and blood draws obtained for PK is not increased. Moreover, the total number of samples can be decreased at any time if the initial sampling scheme is considered unnecessarily intensive.

AHR = target: T1, AHR (Homo sapiens, UniProt P35869); assay: CYP1B1 gene expression in human whole blood exposed ex vivo; format: cell-based; set-up: endogenous in cells; details: Compound A concentrations >0.5 μM; both donors; basal and ligand activated (L-kynurenine) conditions; 24 hours
T1 sequence (P35869 11-848): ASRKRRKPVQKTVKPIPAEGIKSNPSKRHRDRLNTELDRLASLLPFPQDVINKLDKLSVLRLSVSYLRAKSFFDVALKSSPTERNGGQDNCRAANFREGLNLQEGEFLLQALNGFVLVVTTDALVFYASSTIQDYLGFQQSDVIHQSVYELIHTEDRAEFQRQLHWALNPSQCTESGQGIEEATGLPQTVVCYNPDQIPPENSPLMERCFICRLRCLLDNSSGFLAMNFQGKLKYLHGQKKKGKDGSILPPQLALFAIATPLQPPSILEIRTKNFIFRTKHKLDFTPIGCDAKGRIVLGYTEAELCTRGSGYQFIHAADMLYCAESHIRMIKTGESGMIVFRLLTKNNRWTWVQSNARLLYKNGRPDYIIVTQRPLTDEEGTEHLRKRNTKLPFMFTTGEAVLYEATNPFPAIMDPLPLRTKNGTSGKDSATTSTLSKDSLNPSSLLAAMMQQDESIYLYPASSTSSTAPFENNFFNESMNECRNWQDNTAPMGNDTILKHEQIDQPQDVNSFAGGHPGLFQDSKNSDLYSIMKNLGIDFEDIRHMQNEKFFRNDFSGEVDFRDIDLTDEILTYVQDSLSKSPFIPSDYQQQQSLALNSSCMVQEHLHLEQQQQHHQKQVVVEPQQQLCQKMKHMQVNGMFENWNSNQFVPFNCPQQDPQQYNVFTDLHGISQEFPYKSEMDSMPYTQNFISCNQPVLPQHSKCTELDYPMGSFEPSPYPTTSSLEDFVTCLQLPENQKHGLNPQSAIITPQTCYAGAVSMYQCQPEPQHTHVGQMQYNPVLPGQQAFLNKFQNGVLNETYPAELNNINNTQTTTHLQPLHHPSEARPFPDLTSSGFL
Protocol: To further examine the effects of Compound A on basal and ligand-activated AHR-dependent gene expression in human immune cells, blood samples from 2 healthy human donors were exposed ex vivo to Compound A in the presence or absence of […] L-kynurenine to activate AHR. After 24 hours, cells were evaluated for CYP1B1 gene expression. […] In both donors, Compound A concentrations >0.5 μM inhibited CYP1B1 gene expression by greater than 50% under basal and ligand activated conditions.

dose proportionality of PK ([3]; Cycle 2 Day 1 (C2D1)): greater than dose proportional | exposure with increase in dose ([3]; interim cohort PK): Increased exposure with increase in dose | inhibition of CYP1B1 gene expression (AHR): greater than 50%
SMILES: CC(C)c1cnn2c(N[C@@H]3CCc4[nH]c5ccccc5c4C3)nc(-c3cncc(F)c3)nc12 [Compound A, (R)—N-(2-(5-fluoropyridin-3-yl)-8-isopropylpyrazolo[1,5-a][1,3,5]triazin-4-yl)-2,3,4,9-tetrahydro-1H-carbazol-3-amine]
noteworthy findings (monkey) ([1]; monkey): decreased thymus weights and cortical lymphocytes | QTc prolongation ([1]; monkeys): up to 11% | serious adverse events (SAEs) [2]: no serious adverse events; also recorded: without any drug-related serious adverse events
